Values of other authors, collected in US9238023B2, “Methods for improving health in humans” (Quality IP Holdings, LLC, priority 2012, dated 2016).

Tests used:
[1] = test system: hGH; conditions: for effect on hGH: other amino acids, literature
[2] = test system: GH; conditions: subcutaneous injection of 0.06 IU, GH deficient subjects

Compound	effect on hGH [1]	also measured
N=C(N)NCCC[C@H](N)C(=O)O [arginine]	–	elevation of serum hGH levels ([1]; 30 g, males): 8.6 fold; increase of hGH levels ([1]; intravenous infusion 183 mg/kg body weight, females): > 20 fold
N[C@@H](Cc1c[nH]cn1)C(=O)O [histidine]	marked increases in hGH	–
HGH: human growth hormone, subcutaneous injection in the treatment of GH deficient subjects	–	mean levels of GH reached [2]: 0.4 ng/mL
NCCCC[C@H](N)C(=O)O [lysine]	marked increases in hGH	–
NCCC[C@H](N)C(=O)O [ornithine]	marked increases in hGH	–
N[C@@H](Cc1ccccc1)C(=O)O [phenylalanine]	marked increases in hGH	–
CSCC[C@H](N)C(=O)O [methionine]	marked increases in hGH	–
